The source made the active and inactive calls. The calls are words filed in the database; no cut-off is given here.
What was measured:
Staphylococcus aureus [1] = assay: Disruption of membrane integrity in Staphylococcus aureus ATCC 25923 assessed as decrease in cell volume at MIC incubated for 24 hrs by scanning electron microscopy; format: functional, organism-based
Staphylococcus aureus [2] = assay: Antibacterial activity against Staphylococcus aureus ATCC 25923 assessed as reduction in bacterial growth incubated for 24 hrs by serial dilution method; format: functional; details: ATCC 25923, 24 h, read-out: MIC
Staphylococcus aureus [3] = assay: Inhibition of biofilm formation in Staphylococcus aureus ATCC 25923 assessed as downregulation of hld gene at MIC incubated for 1 hr by qRT-PCR; format: functional, organism-based
[4] = Stability in MRSA supernatant at 20 uM incubated for 24 hrs by HPLC-MS analysis; format: physicochemical
[5] = Hemolytic activity in mouse Erythrocyte assessed as HC50 incubated for 1 hr; format: ADME, cell-based; details: mouse erythrocytes
Staphylococcus aureus [6] = assay: Inhibition of biofilm formation in Staphylococcus aureus ATCC 29213 assessed as downregulation of […] gene at MIC incubated for 1 hr by qRT-PCR; format: functional, organism-based
Staphylococcus aureus [7] = assay: Disruption of membrane integrity in methicillin-resistant Staphylococcus aureus ATCC 19498 assessed as cell membrane damage at MIC incubated for 24 hrs by scanning electron microscopy; format: functional, organism-based
Staphylococcus aureus [8] = assay: Inhibition of biofilm formation in methicillin-resistant Staphylococcus aureus ATCC 19498 assessed as downregulation of […] gene at MIC incubated for 1 hr by qRT-PCR; format: functional, organism-based
Erythrocyte = assay: Hemolytic activity in mouse Erythrocyte assessed as HC10 incubated for 1 hr; format: ADME, cell-based
Staphylococcus aureus [9] = assay: Disruption of membrane integrity in methicillin-resistant Staphylococcus aureus ATCC 19498 assessed as invagination of cell membrane at MIC incubated for 24 hrs by scanning electron microscopy; format: functional, organism-based
Streptococcus mutans = assay: Antibacterial activity against Streptococcus mutans UA159 assessed as reduction in bacterial growth incubated for 24 hrs by serial dilution method; format: functional; details: UA159, 24 h, read-out: MIC
Staphylococcus aureus [10] = assay: Inhibition of biofilm formation in methicillin-resistant Staphylococcus aureus ATCC 19498 assessed as downregulation of mecA gene at MIC incubated for 1 hr by qRT-PCR; format: functional, organism-based
Staphylococcus aureus [11] = assay: Inhibition of biofilm formation in methicillin-resistant Staphylococcus aureus ATCC 18466 at MIC incubated for 24 hrs by scanning electron microscopy; format: functional, organism-based
Staphylococcus aureus [12] = assay: Inhibition of biofilm formation in Staphylococcus aureus ATCC 25923 assessed as downregulation of spa gene at MIC incubated for 1 hr by qRT-PCR; format: functional, organism-based
Staphylococcus aureus [13] = assay: Antibacterial activity against methicillin-resistant Staphylococcus aureus ATCC 18466 assessed as reduction in bacterial growth incubated for 24 hrs by serial dilution method; format: functional; details: ATCC 18466, 24 h, read-out: MIC
Staphylococcus aureus [14] = assay: Disruption of membrane integrity in Staphylococcus aureus ATCC 29213 assessed as perforation of cell membrane at MIC incubated for 24 hrs by scanning electron microscopy; format: functional, organism-based
Staphylococcus aureus [15] = assay: Disruption of membrane integrity in methicillin-resistant Staphylococcus aureus ATCC 18466 assessed as shrinking of cell membrane at MIC incubated for 24 hrs by scanning electron microscopy; format: functional, organism-based
Staphylococcus aureus [16] = assay: Disruption of membrane integrity in methicillin-resistant Staphylococcus aureus ATCC 19498 assessed as extravasation of cytoplasmic content at MIC incubated for 24 hrs by scanning electron microscopy; format: functional, organism-based
Staphylococcus aureus [17] = assay: Inhibition of biofilm formation in methicillin-resistant Staphylococcus aureus ATCC 18466 assessed as downregulation of hld gene at MIC incubated for 1 hr by qRT-PCR; format: functional, organism-based
Staphylococcus aureus [18] = assay: Antibacterial activity against Staphylococcus aureus ATCC 29213 assessed as reduction in bacterial growth at MIC measured after 15 passages; format: functional
Staphylococcus aureus [19] = assay: Disruption of membrane integrity in methicillin-resistant Staphylococcus aureus ATCC 18466 assessed as invagination of cell membrane at MIC incubated for 24 hrs by scanning electron microscopy; format: functional, organism-based
Staphylococcus aureus [20] = assay: Disruption of membrane integrity in Staphylococcus aureus ATCC 29213 assessed as extravasation of cytoplasmic content at MIC incubated for 24 hrs by scanning electron microscopy; format: functional, organism-based
Staphylococcus aureus [21] = assay: Disruption of membrane integrity in methicillin-resistant Staphylococcus aureus ATCC 19498 assessed as shrinking of cell membrane at MIC incubated for 24 hrs by scanning electron microscopy; format: functional, organism-based
Staphylococcus aureus [22] = assay: Disruption of membrane integrity in Staphylococcus aureus ATCC 25923 assessed as shrinking of cell membrane at MIC incubated for 24 hrs by scanning electron microscopy; format: functional, organism-based
[23] = Cytotoxicity against human HEK293T cells assessed as cell viability at 5 to 640 ug/ml incubated for 48 hrs by MTT assay relative to control; format: cell-based, HEK-293T; details: read-out: Activity
Staphylococcus aureus [24] = assay: Disruption of membrane integrity in Staphylococcus aureus ATCC 29213 assessed as shrinking of cell membrane at MIC incubated for 24 hrs by scanning electron microscopy; format: functional, organism-based
Staphylococcus aureus [25] = assay: Inhibition of biofilm formation in methicillin-resistant Staphylococcus aureus ATCC 18466 assessed as downregulation of mecA gene at MIC incubated for 1 hr by qRT-PCR; format: functional, organism-based
Candida albicans = assay: Antifungal activity against Candida albicans ATCC 5314 assessed as reduction in fungal growth incubated for 24 hrs by serial dilution method; format: functional; details: ATCC 5314, 24 h, read-out: MIC
Staphylococcus aureus [26] = assay: Inhibition of biofilm formation in Staphylococcus aureus ATCC 29213 assessed as downregulation of hld gene at MIC incubated for 1 hr by qRT-PCR; format: functional, organism-based
Staphylococcus aureus [27] = assay: Inhibition of biofilm formation in Staphylococcus aureus ATCC 25923 assessed as downregulation of mecA gene at MIC incubated for 1 hr by qRT-PCR; format: functional, organism-based
Staphylococcus aureus [28] = assay: Inhibition of biofilm formation in methicillin-resistant Staphylococcus aureus ATCC 19498 assessed as downregulation of spa gene at MIC incubated for 1 hr by qRT-PCR; format: functional, organism-based
Staphylococcus aureus [29] = assay: Inhibition of biofilm formation in Staphylococcus aureus ATCC 29213 assessed as downregulation of mecA gene at MIC incubated for 1 hr by qRT-PCR; format: functional, organism-based
Staphylococcus aureus [30] = assay: Inhibition of biofilm formation in Staphylococcus aureus ATCC 25923 assessed as downregulation of […] gene at MIC incubated for 1 hr by qRT-PCR; format: functional, organism-based
Staphylococcus aureus [31] = assay: Disruption of membrane integrity in Staphylococcus aureus ATCC 25923 assessed as perforation of cell membrane at MIC incubated for 24 hrs by scanning electron microscopy; format: functional, organism-based
Staphylococcus aureus [32] = assay: Disruption of membrane integrity in methicillin-resistant Staphylococcus aureus ATCC 18466 assessed as decrease in cell volume at MIC incubated for 24 hrs by scanning electron microscopy; format: functional, organism-based
Staphylococcus aureus [33] = assay: Disruption of membrane integrity in Staphylococcus aureus ATCC 25923 assessed as extravasation of cytoplasmic content at MIC incubated for 24 hrs by scanning electron microscopy; format: functional, organism-based
Staphylococcus aureus [34] = assay: Inhibition of biofilm formation in Staphylococcus aureus ATCC 25923 at MIC incubated for 24 hrs by scanning electron microscopy; format: functional, organism-based
[35] = Stability in mouse plasma at 20 uM incubated for 12 hrs by HPLC-MS analysis; format: ADME, cell-free
Staphylococcus aureus [36] = assay: Disruption of membrane integrity in methicillin-resistant Staphylococcus aureus ATCC 18466 assessed as extravasation of cytoplasmic content at MIC incubated for 24 hrs by scanning electron microscopy; format: functional, organism-based

Substance | Activity (Staphylococcus aureus [1]) | MIC (Staphylococcus aureus [2]) [mg/L] | inhibition (Staphylococcus aureus [3]) | Stability [4] | HC50 at 1 h [5] [µg/mL] | inhibition (Staphylococcus aureus [6]) | Activity (Staphylococcus aureus [7]) | inhibition (Staphylococcus aureus [8]) | HC10 (Erythrocyte) [µg/mL] | Activity (Staphylococcus aureus [9]) | MIC (Streptococcus mutans) [mg/L] | inhibition (Staphylococcus aureus [10]) | inhibition (Staphylococcus aureus [11]) | inhibition (Staphylococcus aureus [12]) | MIC (Staphylococcus aureus [13]) [mg/L] | Activity (Staphylococcus aureus [14]) | Activity (Staphylococcus aureus [15]) | Activity (Staphylococcus aureus [16]) | inhibition (Staphylococcus aureus [17]) | Activity (Staphylococcus aureus [18]) | further results
H-SYERKINRHFKTLKKNLKKK-NH2 | Active | 32 | Active | Stable | > 640 | Active | Active | Active | > 640 | Active | < 64 | inactive | Active | Active | 16 | Active | Active | Active | Active | Active | Activity (Staphylococcus aureus [19]): Active; Activity (Staphylococcus aureus [20]): Active; Activity (Staphylococcus aureus [21]): Active; Activity (Staphylococcus aureus [22]): Active; viability at 48 h [23]: 70 to 80%; Activity (Staphylococcus aureus [24]): Active; inhibition (Staphylococcus aureus [25]): inactive; MIC (Candida albicans): 64 mg/L; inhibition (Staphylococcus aureus [26]): Active; inhibition (Staphylococcus aureus [27]): inactive; inhibition (Staphylococcus aureus [28]): Active; inhibition (Staphylococcus aureus [29]): inactive; inhibition (Staphylococcus aureus [30]): Active; Activity (Staphylococcus aureus [31]): Active; Activity (Staphylococcus aureus [32]): Active; Activity (Staphylococcus aureus [33]): Active; inhibition (Staphylococcus aureus [34]): Active; Stability [35]: Stable; Activity (Staphylococcus aureus [36]): Active
H-YIRKIRRFFKKLKKILKK-NH2 | Active | 8 | Active | Stable | > 640 | Active | Active | Active | 640 | Active | 64 | inactive | Active | Active | 8 | Active | Active | Active | Active | Active | Activity (Staphylococcus aureus [19]): Active; Activity (Staphylococcus aureus [20]): Active; Activity (Staphylococcus aureus [21]): Active; Activity (Staphylococcus aureus [22]): Active; viability at 48 h [23]: 70 to 80%; Activity (Staphylococcus aureus [24]): Active; inhibition (Staphylococcus aureus [25]): inactive; MIC (Candida albicans): 32 mg/L; inhibition (Staphylococcus aureus [26]): Active; inhibition (Staphylococcus aureus [27]): inactive; inhibition (Staphylococcus aureus [28]): Active; inhibition (Staphylococcus aureus [29]): inactive; inhibition (Staphylococcus aureus [30]): Active; Activity (Staphylococcus aureus [31]): Active; Activity (Staphylococcus aureus [32]): Active; Activity (Staphylococcus aureus [33]): Active; inhibition (Staphylococcus aureus [34]): Active; Stability [35]: Stable; Activity (Staphylococcus aureus [36]): Active

Source: ChEMBL document CHEMBL4311960, “Two optimized antimicrobial peptides with therapeutic potential for clinical antibiotic-resistant Staphylococcus aureus” (Eur J Med Chem, 2019)
